Experiments:
[1] = tested on: Extracellular nucleases; assay: Extracellular nuclease activity of yeast (degradation of genomic DNA by gel electrophoresis); format: cell-based
Procedure: (§1) An additional assay was developed to examine the effects of thio-phosphate media on the synthesis of secreted proteins. Yeast excrete many extracellular hydrolases and the mRNAs for […] adenine, histidine, leucine, lysine, and uracil (Sp, BIO101). Various S. cerevisiase strains are able to grow in minimal media containing thio-phosphate: multiploid fleischmann's yeast strain, haploid strain ATTC# 32119, and diploid strain BJ3505 (Sigma). The haploid strain Pichia canadensis ATTC# 14355 grew better with a yeast nitrogen based media (YNB, BIO 101) as opposed to EMM. Note that the optimal level of total phosphate for yeast is ˜1 g/L which is much less than that for bacteria. Again if necessary to improve growth use nutrient broths depleted of phosphate (see below).
The mRNA is in the size range expected for a mature mRNA in which the intron sequences have been removed (FIG. 1). […] The actin probe is prepared by amplification of yeast genomic DNA (act), YFL039C, Saccharomyces Genome Database http://genome-www2.standford.edu) with the following PCR primers: • SEQ ID NO. 1: 5′ GAGGTTGCTGCTTTGGTTATTG 3′ 22 bp • SEQ ID NO. 2: 5′ TTGTGGTGAACGATAGATGGAC 3′ 22 bp PCR cycling parameters using a BIO-RAD thermal cycler and Taq polymerase are as follows: initial denaturation at 94° C. for 4 min. followed by 33 cycles of denaturation at 94° C. for 30 sec, annealing at 45° C. for 30 sec, elongation at 72° C. for 3 min. followed by a final elongation at 72° C. for 7 min. […] Total RNA (˜0.5 ug) is separated on a 2% high resolving agarose gel and transferred to a neutral nylon membrane. The probe is hybridized according to S&S protocols and detected by chemilumescence using polaroid film. […] Extracellular nucleases are detected by monitoring the degradation of genomic DNA by gel electrophoresis.

[2] = tested on: beta-galactosidase; assay: Recombinant beta-galactosidase colormetric assay (X-gal) in bacterial cells; format: cell-based; details: for effect on beta-galactosidase enzyme activity: 2% lactose minimal media
Procedure: A recombinant vector containing the beta-galactosidase gene (Promega's TA vector expressed from an SP6 promoter) can also be examined. Enzyme activity is detected via a colormetric assay. Cells are grown in minimal media made with 2% lactose rather than glucose for optimal induction of beta-galactosidase. After several (˜4-5) hrs bacterial cells are removed to assay for enzyme activity. To 0.5 ml of cells add 0.5 ml of 200 mM Tris-HCL, pH 7.5 and 5 ul of 1% SDS (sodium dodecyl sulfate). Then add 10 ul of IPTG (100 mM) and 20 ul of X-gal (50 mg/ml), mix and incubate at 37° C. […] In the presence of glucose which represses the enzyme, the activity is much lower but can be enhanced 10 fold by using a 50% ratio of thio-phosphate to phosphate.

[3] = tested on: Carassius auratus; assay: Tolerance of fish kept in conditioned media with thio-phosphate; format: in vivo; details: up to 250 mg/L of thio-phosphate in conditioned media, two days
Procedure: (§2) Thio-phosphate can also be utilized by whole animals and/or complex tissues. Carassius auratus incorporates thio-phosphate into the DNA of intestinal cells; these cells are known to turnover in adults. Fish can be maintained in distilled water with NovAqua and AmQuel conditioners (U.S. Pat. No. 4,666,610). Goldfish flakes are also added for food. Normal phosphate levels in the aquarium are less than 1 mg/L (Hanna Phosphate Test Kit; Hanna Instruments). Fish are transferred to 100 ml of conditioned media with up to 250 mg/L of thio-phosphate added. […] Fresh media is prepared daily. Fish are sacrificed and DNA prepared from intestinal cells using DNAzol™ (Molecular Research Center Ohio). The DNA samples are then tested for resistance to DNase digestion. Samples are incubated in a 50 ul rxn with ˜lug of DNA and 0.5 units of DNase for 0, 5, 10, 15 min. at room temp. DNA from 250 mg/L thio-phosphate media is much more resistant than wildtype DNA or DNA from 25 mg/L thio-phosphate media. Normal DNA and 25 mg/L thio-phosphate treated DNA is digested after 5 min. while 250 mg/L thio-phosphate treated DNA persists beyond 15 min. of digestion (FIG. 3).

[4] = tested on: DNA of intestinal cells; assay: DNase resistance of intestinal DNA from fish kept in thio-phosphate media; format: in vivo, Carassius auratus; details: 0.5 units DNase, room temp.
Procedure: as §2

[5] = tested on: YEpFLAG-1-BAP (bacterial alkaline phosphatase) expression in yeast cells (BJ3505 strain); assay: Recombinant FLAG-tagged secreted bacterial alkaline phosphatase synthesis in yeast (immuno test strips, dilution assays); format: cell-based, S. cerevisiae
Procedure: (§3) The stabilization of RNA by growth in thio-phosphate media can be used to enhance the protein synthesis of many proteins. The optimal level of thio-phosphate to phosphate must be determined as well absolute levels of total phosphate that are tolerable. Growth in all cases is enhanced by using enriched media prepared by depleting inherent phosphate. To deplete phosphate by precipitation, MgSO4 and ammonium hydroxide are added to the media of choice. YPD (1% Bacto-yeast extract, 2% Bacto-peptone, 2% Dextrose) phosphate depleted media is prepared by adding 10 ml of 1 M MgSO4 and 10 ml of concentrated NH4OH per liter and allowing the ppt. to form by leaving the solution at room temp. for 30 min. The media is then filtered and the pH readjusted to pH 6.5. Using this procedure, the detectable amount of ortho-phosphate remaining is less than ˜200 mg/liter. […] It is best to innoculate at high densities using, for example a 1:20 dilution. Insufficient innoculum (low density) will result in poor growth.
To test for optimal protein synthesis conditions the following system can be used: a recombinant YEp plasmid containing a secreted bacterial alkaline phosphatase gene (YEpFLAG-1-BAP, Sigma; U.S. Pat. Nos. 4,703,004, 4,782,137 EP Patent 150126, and JP Patent 1983150) marked with the FLAG™ peptide DYKDDDDK. […]

[6] = tested on: bacteria; assay: Soluble protein levels, biuret reagent, bacteria; format: cell-based; details: low ratios of thio-phosphate to phosphate (10-30%)
Procedure: (§4) At higher ratios a slight decline in growth appears to account for a reduction in total protein synthesis detected. To measure protein synthesis 4 ml of cells are pelleted washed in PBS and resuspended in lysozyme solution for bacteria. Cells are then pelleted again and washed in PBS to remove lysozyme. Cells are then lysed in 400 ul of 1% SDS and 0.2 N NaOH. The extract is then diluted in water to 2 ml and assayed using the biuret reagent (Gornall et al (1949) J. Biol. Chem. 177:751). Yeast are assayed without lysozyme.

[7] = tested on: yeast actin mRNA; assay: Northern analysis of actin mRNA in yeast grown in thio-phosphate media; format: cell-based, S. cerevisiae; details: 100% thio-phosphate substituted media; ~0.5 ug total RNA
Procedure: To maximize mRNA levels cells are grown in minimal media substituted with 100% thio-phosphate. Bacteria and yeast grow quite well in such media. For E. coli minimal media is prepared as follows: (Na3SPO3.XH2O) 10-15 g/L and KCL (1.5 g/L) (NH4)2SO4, 1 g/L; sodium citrate 2H2O, 0.5 g/L; Adjust pH to 7.4 and sterile filter. Then add the following: MgSO4.7H2O, 0.2 g/L (sterilized separately as a conc. solution); (thiamine HCL, 5 ug/L; glucose, 4 g/L sterilized separately by filtration). Glucose can also be sterilized by autoclaving separately. FeCl2 (500 ug/L) can also be added as needed. Thio-phosphate contains variable amounts of water (10-15 per molecule) not included in molecular weight calculations. It is almost 50% water by weight. Note pH control is important in maximizing thio-phosphate stability. […] When adapting to other bacteria determine the sensitivity of the organism to thio-phosphate levels. Optimize for KCL as this often is provided as a salt of normal phosphate. […]
(§5) The mRNA is in the size range expected for a mature mRNA in which the intron sequences have been removed (FIG. 1). […] The probe is hybridized according to S&S protocols and detected by chemilumescence using polaroid film. […] Extracellular nucleases are detected by monitoring the degradation of genomic DNA by gel electrophoresis.

[8] = tested on: yeast; assay: Soluble protein levels, biuret reagent, yeast; format: cell-based; details: low ratios of thio-phosphate to phosphate (10-30%)
Procedure: as §4

[9] = tested on: lipase; assay: Secreted lipase of yeast, qualitative assays; format: cell-based
Procedure: as §1
as §5, with “1). […] The actin probe is prepared by amplification of yeast genomic DNA (act), YFL039C, Saccharomyces Genome Database http://genome-www2.standford.edu) with the following PCR primers: • SEQ ID NO. 1: 5′ GAGGTTGCTGCTTTGGTTATTG 3′ 22 bp • SEQ ID NO.” for “1).”

[10] = tested on: pFLAG-ATS-BAP (bacterial alkaline phosphatase) expression in JM109; assay: Bacterial expression of pFLAG-ATS-BAP, colormetric staining of whole cells (NBT/BCIP); format: cell-based, bacterial cells (JM109)
Procedure: Bacterial expression can be examined using the recombinant vector pFLAG-ATS-BAP (Sigma Chemical; U.S. Pat. Nos. 4,703,004, 4,782,137 EP Patent 150126, and JP Patent 1983150) marked with bacterial alkaline phosphatase and under the control of a tac/lac hybrid promoter induced by IPTG. This control plasmid is expressed in the periplasmic fraction by virtue of the N-terminal OmpA signal at high levels. Enzyme activity is easily visualized using colormetric staining of whole cells. 0.5 ml of cells are pelleted and resuspended in pH 9.5 buffer (0.1 M Tris-HCL, 0.1 M NaCL, 50 mM MgCl2) along with 10 ul of NBT (nitroblue tetrazolium, 50 mg/ml) and 5 ul of BCIP (5-bromo-4-chloro-3-indolylphosphate, 50 mg/ml). After sufficient time (there may be a slight delay in the activity of induced cells) the samples are compared and then centrifuged to compare pellets. Various ratios of modified phosphate to phosphate are examined: 0%, 10%, 15%, 20%, 25%, 30%, 40%, 50%, 60, 70%, 80%, 90% and 100%. […] To determine the optimal ratio a lower level of lactose is used in the media to prevent the formation of inclusion bodies during the analysis (M9 minimal media made with 0.1% rather than 0.5% lactose, total phosphate levels of 10 g/L). […]

[11] = tested on: S. cerevisiae; assay: Growth in phosphate depleted YPD media with thio-phosphate/phosphate ratios; format: cell-based; details: phosphate levels ~1 g/L, full range of ratios (100% to 0%)
Procedure: as §3

[12] = tested on: Pichia canadensis; assay: as above; format: cell-based; details: phosphate levels ~1 g/L, full range of ratios (100% to 0%)
Procedure: as §3

In the case of [Na+].[Na+].[Na+].[O-]P([O-])([O-])=S [thio-phosphate, Na3SPO3.XH2O], the “increase of extracellular nuclease activity” value ([1]; 10% ratio of thio-phosphate to phosphate) is reported as “two to three fold increase”, the “effect on extracellular nuclease activity” value ([1]; ratios above 70%) is reported as “slightly inhibitory” and the “effect on extracellular nuclease activity” value ([1]; ratios beyond 30%) is reported as “not stimulatory”. The “effect on beta-galactosidase enzyme activity” value ([2]; higher ratios (50-70%)) was “recovers from inhibition”, the “enhancement of beta-galactosidase activity” value ([2]; in the presence of glucose, 50% ratio of thio-phosphate to phosphate) was 10 fold and the “effect on beta-galactosidase enzyme activity” value ([2]; low ratios of thio-phosphate to phosphate (5-30%)) was “inhibited”. The “adverse reactions in fish” value [3] was “No adverse reactions”, the “time after which DNA is digested by DNase” value ([4]; 25 mg/L thio-phosphate media) was no more than 5 min and the “time DNA persists under DNase digestion” value ([4]; 250 mg/L thio-phosphate media) was greater than 15 min. The “ratio of thio-phosphate to normal phosphate at which maximal synthesis occurs” value ([5]; weight equivalent ratio, grown overnight, following cessation of growth, ratios 100-0 tested) was roughly 10%, the “increase of FLAG-BAP protein compared to normal media with an equivalent amount of phosphate” value ([5]; ~10% ratio, dilution assays) was “about ten fold” and the soluble protein levels [6] was “not enhanced”. For the same compound, the “stabilization of actin mRNA” value [7] was “significant stabilization”, the soluble protein levels [8] was “not enhanced” and the increase of lipase [9] was “less than two fold”. For the same compound, the “BAP activity elevated over controls” value ([10]; 50% ratio, low lactose levels) was “several fold”, the “optimal ratio of modified phosphate to phosphate for BAP enzyme activity” value ([10]; low lactose (0.1%) M9 minimal media, total phosphate 10 g/L) was 50% and the growth [11] was “adequate growth”. For the same compound, the growth [12] was “adequate growth”.

Source: patent US8088602B1, “Manipulation of RNA stability and protein synthesis using thio-phosphate” (priority 2001, dated 2012)
